Data reported in ChEMBL document CHEMBL1938312, “Design and combinatorial synthesis of a novel kinase-focused library using click chemistry-based fragment assembly” (Bioorg Med Chem Lett, 2012).
Activity calls are given as the source filed them. The calls are words filed in the database; no cut-off is given here.

Tests used:
[1] = target: T1, Tyrosine-protein kinase JAK3 (Homo sapiens) (UniProt P52333); assay: Inhibition of JAK3 at 10 uM by colorimetric analysis
T1 sequence (whole entry): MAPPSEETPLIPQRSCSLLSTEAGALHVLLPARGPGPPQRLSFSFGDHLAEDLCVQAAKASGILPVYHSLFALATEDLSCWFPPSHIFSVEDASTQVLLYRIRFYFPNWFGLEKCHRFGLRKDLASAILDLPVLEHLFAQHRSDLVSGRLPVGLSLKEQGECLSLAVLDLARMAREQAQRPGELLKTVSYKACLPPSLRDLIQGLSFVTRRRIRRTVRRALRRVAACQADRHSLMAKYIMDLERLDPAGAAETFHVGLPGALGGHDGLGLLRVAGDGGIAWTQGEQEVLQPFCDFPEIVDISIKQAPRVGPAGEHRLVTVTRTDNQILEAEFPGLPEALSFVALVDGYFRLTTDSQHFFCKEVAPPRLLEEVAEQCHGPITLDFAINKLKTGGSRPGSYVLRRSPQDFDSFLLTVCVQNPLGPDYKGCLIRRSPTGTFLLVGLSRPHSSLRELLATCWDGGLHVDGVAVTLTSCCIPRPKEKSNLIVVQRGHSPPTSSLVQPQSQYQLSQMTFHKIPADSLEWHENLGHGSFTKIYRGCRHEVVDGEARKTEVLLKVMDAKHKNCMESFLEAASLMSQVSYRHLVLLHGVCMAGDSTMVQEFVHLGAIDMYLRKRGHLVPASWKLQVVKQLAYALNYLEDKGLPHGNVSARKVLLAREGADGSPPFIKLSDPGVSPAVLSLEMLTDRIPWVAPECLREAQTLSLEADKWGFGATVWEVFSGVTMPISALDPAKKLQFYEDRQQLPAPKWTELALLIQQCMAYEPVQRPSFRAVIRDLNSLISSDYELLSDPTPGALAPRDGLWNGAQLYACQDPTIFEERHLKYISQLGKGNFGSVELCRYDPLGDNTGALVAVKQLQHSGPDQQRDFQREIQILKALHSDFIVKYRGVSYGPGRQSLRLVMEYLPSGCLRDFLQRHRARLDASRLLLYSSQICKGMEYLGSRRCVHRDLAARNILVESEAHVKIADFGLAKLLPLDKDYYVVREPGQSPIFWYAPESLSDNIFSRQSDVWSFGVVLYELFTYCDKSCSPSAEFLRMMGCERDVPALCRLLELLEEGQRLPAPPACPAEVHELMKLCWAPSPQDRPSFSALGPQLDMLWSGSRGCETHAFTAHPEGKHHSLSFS

[2] = target: Vascular endothelial growth factor receptor 2 (Homo sapiens) (UniProt P35968); assay: Inhibition of KDR at 10 uM by colorimetric analysis
Chain of Vascular endothelial growth factor receptor 2 (Homo sapiens) (P35968 whole entry): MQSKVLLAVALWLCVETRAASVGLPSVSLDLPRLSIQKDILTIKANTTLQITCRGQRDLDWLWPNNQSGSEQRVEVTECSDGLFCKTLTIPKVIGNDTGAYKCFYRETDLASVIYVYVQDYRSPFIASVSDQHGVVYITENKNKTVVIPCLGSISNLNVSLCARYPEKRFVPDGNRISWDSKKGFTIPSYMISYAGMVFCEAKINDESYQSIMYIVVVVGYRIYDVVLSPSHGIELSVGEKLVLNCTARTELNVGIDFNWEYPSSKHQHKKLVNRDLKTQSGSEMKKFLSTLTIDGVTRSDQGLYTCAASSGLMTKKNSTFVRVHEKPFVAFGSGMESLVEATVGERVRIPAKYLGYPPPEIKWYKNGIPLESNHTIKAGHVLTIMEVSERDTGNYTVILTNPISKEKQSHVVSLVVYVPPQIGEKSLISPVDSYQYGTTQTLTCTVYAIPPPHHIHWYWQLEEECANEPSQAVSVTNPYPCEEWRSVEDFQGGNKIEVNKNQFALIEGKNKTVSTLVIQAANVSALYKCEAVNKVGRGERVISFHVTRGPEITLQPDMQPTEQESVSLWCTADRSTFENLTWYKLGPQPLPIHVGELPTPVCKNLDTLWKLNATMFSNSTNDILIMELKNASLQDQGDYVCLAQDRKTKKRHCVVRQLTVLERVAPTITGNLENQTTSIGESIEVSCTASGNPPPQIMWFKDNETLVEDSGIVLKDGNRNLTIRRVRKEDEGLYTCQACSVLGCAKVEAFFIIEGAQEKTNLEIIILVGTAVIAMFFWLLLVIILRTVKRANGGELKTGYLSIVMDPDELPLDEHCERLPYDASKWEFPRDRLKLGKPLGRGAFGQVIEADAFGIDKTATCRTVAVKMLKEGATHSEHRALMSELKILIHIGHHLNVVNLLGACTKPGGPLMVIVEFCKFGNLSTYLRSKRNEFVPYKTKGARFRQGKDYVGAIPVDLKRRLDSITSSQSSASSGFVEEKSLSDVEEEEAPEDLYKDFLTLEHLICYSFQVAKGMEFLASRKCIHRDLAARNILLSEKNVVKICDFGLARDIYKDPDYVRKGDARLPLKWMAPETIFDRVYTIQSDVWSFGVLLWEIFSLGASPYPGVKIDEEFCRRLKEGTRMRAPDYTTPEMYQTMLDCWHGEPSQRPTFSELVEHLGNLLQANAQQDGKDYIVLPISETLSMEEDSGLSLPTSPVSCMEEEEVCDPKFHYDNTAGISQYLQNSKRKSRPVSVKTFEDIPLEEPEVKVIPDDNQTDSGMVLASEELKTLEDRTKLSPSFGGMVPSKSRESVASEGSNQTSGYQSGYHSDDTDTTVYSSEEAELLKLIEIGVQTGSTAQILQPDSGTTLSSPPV

[3] = target: Tyrosine-protein kinase Lck (Homo sapiens) (UniProt P06239); assay: Inhibition of LCK at 10 uM by colorimetric analysis
Chain of Tyrosine-protein kinase Lck (Homo sapiens) (P06239 2-509 limits assumed): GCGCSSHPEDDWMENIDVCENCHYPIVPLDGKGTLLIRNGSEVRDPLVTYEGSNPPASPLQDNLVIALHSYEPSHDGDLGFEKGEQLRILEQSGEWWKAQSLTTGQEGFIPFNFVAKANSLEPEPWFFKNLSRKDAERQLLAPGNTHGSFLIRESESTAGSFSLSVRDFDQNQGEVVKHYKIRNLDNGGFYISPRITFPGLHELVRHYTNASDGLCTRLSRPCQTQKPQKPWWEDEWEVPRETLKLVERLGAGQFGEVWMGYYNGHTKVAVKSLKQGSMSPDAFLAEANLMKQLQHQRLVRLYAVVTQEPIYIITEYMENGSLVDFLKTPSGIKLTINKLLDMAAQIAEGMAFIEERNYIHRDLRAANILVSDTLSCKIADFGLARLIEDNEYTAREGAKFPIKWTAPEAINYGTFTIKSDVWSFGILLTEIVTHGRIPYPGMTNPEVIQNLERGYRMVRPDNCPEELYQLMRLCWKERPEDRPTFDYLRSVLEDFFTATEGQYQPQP

[4] = target: Tyrosine-protein kinase SYK (Homo sapiens) (UniProt P43405); assay: Inhibition of SYK at 10 uM by colorimetric analysis
[5] = target: High affinity nerve growth factor receptor (Homo sapiens) (UniProt P04629); assay: Inhibition of TRKA at 10 uM by colorimetric analysis
Chain of High affinity nerve growth factor receptor (Homo sapiens) (P04629 33-796 limits assumed): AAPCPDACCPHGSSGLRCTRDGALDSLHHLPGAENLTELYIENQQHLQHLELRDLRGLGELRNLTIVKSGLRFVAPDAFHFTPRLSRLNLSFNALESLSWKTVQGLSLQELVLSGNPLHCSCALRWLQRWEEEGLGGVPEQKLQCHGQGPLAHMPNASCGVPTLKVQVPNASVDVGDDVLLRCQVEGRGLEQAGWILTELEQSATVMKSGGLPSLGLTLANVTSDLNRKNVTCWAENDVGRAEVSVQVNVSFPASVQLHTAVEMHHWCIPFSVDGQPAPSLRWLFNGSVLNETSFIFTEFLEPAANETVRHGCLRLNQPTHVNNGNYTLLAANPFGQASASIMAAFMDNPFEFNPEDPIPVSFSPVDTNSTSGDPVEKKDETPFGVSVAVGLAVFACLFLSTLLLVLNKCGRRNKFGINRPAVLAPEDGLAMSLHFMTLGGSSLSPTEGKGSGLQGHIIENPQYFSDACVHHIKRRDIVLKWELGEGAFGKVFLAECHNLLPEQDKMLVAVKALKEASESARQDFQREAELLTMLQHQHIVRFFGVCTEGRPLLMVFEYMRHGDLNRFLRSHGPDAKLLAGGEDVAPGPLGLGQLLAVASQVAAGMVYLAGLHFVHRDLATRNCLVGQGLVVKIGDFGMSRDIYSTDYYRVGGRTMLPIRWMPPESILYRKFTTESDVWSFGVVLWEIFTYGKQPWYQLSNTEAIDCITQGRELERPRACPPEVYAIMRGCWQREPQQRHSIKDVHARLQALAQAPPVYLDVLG

[6] = target: Glycogen synthase kinase-3 beta (Homo sapiens, UniProt P49841); assay: Inhibition of GSK3-beta at 10 uM by colorimetric analysis
Chain of Glycogen synthase kinase-3 beta (P49841 whole entry, looked up): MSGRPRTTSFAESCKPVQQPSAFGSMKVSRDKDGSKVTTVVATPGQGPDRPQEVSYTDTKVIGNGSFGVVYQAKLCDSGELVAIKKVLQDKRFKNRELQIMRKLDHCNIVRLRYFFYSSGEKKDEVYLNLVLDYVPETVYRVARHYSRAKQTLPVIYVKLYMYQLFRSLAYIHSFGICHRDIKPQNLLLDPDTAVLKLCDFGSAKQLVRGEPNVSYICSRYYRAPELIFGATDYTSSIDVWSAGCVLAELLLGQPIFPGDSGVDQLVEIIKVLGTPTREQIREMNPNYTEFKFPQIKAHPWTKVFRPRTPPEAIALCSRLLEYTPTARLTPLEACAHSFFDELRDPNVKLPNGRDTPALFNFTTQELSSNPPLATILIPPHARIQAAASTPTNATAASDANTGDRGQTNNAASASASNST

[7] = target: T2, Serine/threonine-protein kinase 4 (Homo sapiens) (UniProt Q13043); assay: Inhibition of MST1 at 10 uM by colorimetric analysis
T2 sequence (whole entry): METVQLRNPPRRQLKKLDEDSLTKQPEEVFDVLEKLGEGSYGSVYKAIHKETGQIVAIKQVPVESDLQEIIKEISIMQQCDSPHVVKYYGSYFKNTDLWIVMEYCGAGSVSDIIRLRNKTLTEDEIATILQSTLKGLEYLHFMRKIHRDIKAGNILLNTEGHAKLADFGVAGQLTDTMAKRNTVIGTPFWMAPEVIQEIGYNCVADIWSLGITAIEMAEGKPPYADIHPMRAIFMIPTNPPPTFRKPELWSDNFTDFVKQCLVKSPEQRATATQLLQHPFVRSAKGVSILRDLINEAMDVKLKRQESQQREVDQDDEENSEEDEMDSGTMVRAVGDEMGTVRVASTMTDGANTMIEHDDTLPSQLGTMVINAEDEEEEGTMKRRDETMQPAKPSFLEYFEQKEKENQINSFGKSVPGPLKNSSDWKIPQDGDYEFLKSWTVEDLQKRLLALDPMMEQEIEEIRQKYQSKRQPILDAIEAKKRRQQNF

[8] = target: T3, Serine/threonine-protein kinase D2 (Homo sapiens) (UniProt Q9BZL6); assay: Inhibition of PKD2 at 10 uM by colorimetric analysis
T3 sequence (whole entry): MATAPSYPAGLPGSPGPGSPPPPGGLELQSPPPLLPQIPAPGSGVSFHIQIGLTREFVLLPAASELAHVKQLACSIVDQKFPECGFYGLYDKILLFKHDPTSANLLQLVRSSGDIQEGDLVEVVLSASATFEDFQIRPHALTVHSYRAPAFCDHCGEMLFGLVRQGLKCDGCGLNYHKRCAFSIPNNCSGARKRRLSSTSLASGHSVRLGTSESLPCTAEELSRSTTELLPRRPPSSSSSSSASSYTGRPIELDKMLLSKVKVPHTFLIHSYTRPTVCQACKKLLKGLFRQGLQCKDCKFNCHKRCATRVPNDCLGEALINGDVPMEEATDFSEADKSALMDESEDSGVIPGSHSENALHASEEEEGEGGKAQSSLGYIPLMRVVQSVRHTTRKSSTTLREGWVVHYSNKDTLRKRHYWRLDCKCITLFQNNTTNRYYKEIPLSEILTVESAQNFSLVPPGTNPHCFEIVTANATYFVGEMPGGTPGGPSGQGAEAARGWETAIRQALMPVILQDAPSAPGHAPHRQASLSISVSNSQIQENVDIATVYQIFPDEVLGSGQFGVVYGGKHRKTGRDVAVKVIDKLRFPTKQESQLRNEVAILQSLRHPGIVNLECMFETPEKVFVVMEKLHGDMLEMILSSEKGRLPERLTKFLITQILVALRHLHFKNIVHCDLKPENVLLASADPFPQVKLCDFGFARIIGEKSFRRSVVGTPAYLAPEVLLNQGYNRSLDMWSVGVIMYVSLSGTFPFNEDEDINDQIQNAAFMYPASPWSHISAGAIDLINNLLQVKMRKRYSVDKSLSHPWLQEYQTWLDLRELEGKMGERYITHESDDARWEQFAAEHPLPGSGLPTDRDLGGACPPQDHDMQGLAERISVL

[9] = target: Rho-associated protein kinase 1 (Homo sapiens) (UniProt Q13464); assay: Inhibition of ROCK1 at 10 uM by colorimetric analysis
Chain of Rho-associated protein kinase 1 (Homo sapiens) (Q13464 2-1354 limits assumed): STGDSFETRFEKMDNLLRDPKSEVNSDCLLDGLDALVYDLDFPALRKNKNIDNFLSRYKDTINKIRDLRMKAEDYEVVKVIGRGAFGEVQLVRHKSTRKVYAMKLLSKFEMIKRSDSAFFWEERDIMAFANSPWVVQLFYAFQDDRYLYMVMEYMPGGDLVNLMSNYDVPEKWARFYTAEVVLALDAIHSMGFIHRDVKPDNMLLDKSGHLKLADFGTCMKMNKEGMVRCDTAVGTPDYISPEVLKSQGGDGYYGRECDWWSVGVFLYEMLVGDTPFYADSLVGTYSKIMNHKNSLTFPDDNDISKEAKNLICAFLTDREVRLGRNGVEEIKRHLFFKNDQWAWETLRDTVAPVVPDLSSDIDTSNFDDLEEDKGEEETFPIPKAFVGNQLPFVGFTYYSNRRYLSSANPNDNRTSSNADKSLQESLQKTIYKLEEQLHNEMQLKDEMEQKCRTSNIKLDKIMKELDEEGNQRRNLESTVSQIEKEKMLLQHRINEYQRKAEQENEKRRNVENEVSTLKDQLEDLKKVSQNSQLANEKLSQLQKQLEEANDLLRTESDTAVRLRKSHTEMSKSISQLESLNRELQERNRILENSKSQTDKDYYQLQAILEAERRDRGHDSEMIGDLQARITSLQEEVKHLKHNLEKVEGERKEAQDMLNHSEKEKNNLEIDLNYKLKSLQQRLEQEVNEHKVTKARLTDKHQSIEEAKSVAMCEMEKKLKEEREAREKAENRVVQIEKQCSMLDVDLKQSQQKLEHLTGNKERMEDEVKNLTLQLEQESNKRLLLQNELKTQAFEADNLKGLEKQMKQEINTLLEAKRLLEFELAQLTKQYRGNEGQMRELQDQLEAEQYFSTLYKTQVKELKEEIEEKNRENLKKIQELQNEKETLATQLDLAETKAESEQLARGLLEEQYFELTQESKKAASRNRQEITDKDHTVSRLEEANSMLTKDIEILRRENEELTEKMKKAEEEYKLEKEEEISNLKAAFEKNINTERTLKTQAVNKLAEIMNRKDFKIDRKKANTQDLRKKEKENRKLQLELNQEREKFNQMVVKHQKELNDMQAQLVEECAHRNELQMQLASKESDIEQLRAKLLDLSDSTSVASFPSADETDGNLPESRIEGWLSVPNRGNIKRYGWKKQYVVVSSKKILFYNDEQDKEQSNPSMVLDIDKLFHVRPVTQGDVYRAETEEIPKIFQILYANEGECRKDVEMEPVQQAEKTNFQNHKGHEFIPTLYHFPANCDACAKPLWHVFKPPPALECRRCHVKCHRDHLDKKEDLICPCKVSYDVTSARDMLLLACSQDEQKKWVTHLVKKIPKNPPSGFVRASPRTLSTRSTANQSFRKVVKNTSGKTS

[10] = target: 3-phosphoinositide-dependent protein kinase 1 (Homo sapiens) (UniProt O15530); assay: Inhibition of PDK1 at 10 uM by colorimetric analysis
Chain of 3-phosphoinositide-dependent protein kinase 1 (Homo sapiens) (O15530 whole entry, looked up): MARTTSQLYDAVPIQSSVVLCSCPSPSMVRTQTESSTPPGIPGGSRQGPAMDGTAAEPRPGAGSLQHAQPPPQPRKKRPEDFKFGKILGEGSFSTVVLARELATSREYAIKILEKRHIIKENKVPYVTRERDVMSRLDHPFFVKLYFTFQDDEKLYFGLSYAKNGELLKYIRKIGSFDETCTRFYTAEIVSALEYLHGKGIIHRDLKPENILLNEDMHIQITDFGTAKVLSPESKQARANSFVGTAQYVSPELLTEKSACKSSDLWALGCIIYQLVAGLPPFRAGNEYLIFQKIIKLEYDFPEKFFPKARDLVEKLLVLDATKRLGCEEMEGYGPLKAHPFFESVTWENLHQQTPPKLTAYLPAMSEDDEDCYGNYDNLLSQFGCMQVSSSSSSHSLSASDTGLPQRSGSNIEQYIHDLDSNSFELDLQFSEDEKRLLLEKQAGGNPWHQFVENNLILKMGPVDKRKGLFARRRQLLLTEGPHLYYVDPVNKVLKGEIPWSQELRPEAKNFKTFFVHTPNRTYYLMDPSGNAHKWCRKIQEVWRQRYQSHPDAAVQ

inhibition [1] | inhibition [2] | inhibition [3] | inhibition [4] | inhibition [5] | inhibition [6] | inhibition [7] | inhibition [8] | inhibition [9] | inhibition [10] | SMILES
inactive | inactive | inactive | inactive | inactive | Active | Active | Active | Active | Active | Clc1cccc(-n2nncc2-c2ccncc2)c1
inactive | inactive | inactive | inactive | inactive | Active | Active | Active | Active | Active | Clc1ccc(-n2nncc2-c2ccncc2)cc1
inactive | inactive | inactive | inactive | inactive | Active | Active | Active | Active | Active | Clc1cccc(-n2cc(-c3ccncc3)nn2)c1
inactive | inactive | inactive | inactive | inactive | Active | Active | Active | Active | Active | Clc1ccc(-n2cc(-c3ccncc3)nn2)cc1
